Data from paper PMC13011345, “Computational and experimental identification of potential neutralizing peptides derived from human ACE2 against SARS-CoV-2 infection” (Journal of Virology, 2026).
Ends that are not written are not given here.

Tested on: pseudotyped SARS-CoV-2 particle (VSV-SARS-CoV-2-S virus, Wuhan-Hu-1 spike) infecting BHK21-hACE2 cells
Details: 1 h

QKLFNMLRLGKS [ACE552–563]
IC50: 12.5 nM

AWDLGKGDFRIL [ACE348–359]
IC50: 31.2 nM

HIQYDMAYAAQPFLLRNG [ACE378–395]
IC50: 3.8 nM

LPNMTQGFWENSML [ACE320–333]
IC50: 43.9 nM
